Measurements as given in patent US10161008B2, “miR-193a-3p and associated genes predict tumorigenesis and chemotherapy outcomes” (Genedia Biotech Co., Ltd., priority 2011, dated 2018).
≈ marks a conversion by molar mass, not a printed value. Read-outs that look alike come from different tables or passages of the source. Values belong to the compound of their own block, whether it stands above or below them.

Assays:
miR-193a-3p = assay: qRT-PCR of miR-193a-3p after demethylation in QGY-7703; type: cell-based, human; details: QGY-7703, treated 2 and 4 days
From the text: A. The physical map of the miR-193 gene region for DNA methylation analysis. (FIG. 3A discloses SEQ ID NO: 23) B. The methylation state of each of 27 CpGs in the mock treated (Mock) and treated for 2 days (2D) and 4 days (4D). C. The methylation frequency in B (unit: mC/Total) is plotted. D. The methylation state of the miR-193a gene determined by methylation-specific PCR is shown. Control: the unmethylated (U) and methylated (M) control DNA, respectively. E. Relative miR-193a-3p level determined by qRT-PCR was plotted. (*P<0.05, **P<0.01).
RNA: Total RNA was isolated using TRIzol reagent (Invitrogen, USA). Complementary DNA synthesis was performed using a primeScript RT reagent kit (Tiangen Biotech Co., Ltd., Beijing, China) for the SYBR® Green-based real-time PCR analysis in Rotor-Gene™ 6000 system, Qiagen, Germany) of SRSF2, E2F1, ABCC8, and CASP2S/L. The expression of miR-193a-3p (Ribobio, Guangzhou, China) was assessed using the 2-Ct method with RNA content normalized to the U6 RNA (Ribobio, Guangzhou, China) and to β-actin for other genes and plotted. The high-throughput, quantitative nuclease protection based analysis (Bourzac K. M. et al. (2011) J Biotechnol, 154, 68-75; Pechhold S. et al. (2009) Nat Biotechnol, 27, 1038-1042) on a customized array that are designed for the simultaneous determination of the expression of 42 human miRs and 5 housekeeping genes was determined. […]

[1] = tested on: Bcap-37 versus ZR-75-30 breast cancer cells; assay: IC50 screen of breast cancer cell lines; type: cell-based, human; details: Bcap-37 vs ZR-75-30
Experimental: The log phase of cell culture was obtained in Dulbecco modified Eagle medium (Invitrogen) containing 10% calf serum and 1% streptomycin-penicillin at 37° C. in 5% CO2. The thiazolyl blue tetrazolium blue (MTT)-based cell proliferation assay was carried out as follows: 5×10^3 to 1×10^4 cells in triplicate were cultured into each well of a 96-well plate (in triplicate) for 72 h, followed by a 3-h 37° C. incubation after addition of 10 μL (5 mg/mL) MTT salt (Sigma, USA). The OD 570-nm reading was obtained; the mean and SD of the triplicate experiments were calculated and plotted (Fei Q. et al. (2008) Acta Biochim Biophys Sin (Shanghai), 40, 466-477).
The relative OD 570-nm readings (mean and SD) in each drug-treated set and the no-drug mock sample were calculated (%) and plotted against the logarithm of the drug concentration. The linear regression parameters were determined for each curve and the IC50 extrapolated (Andrisano V. et al. (2001) J Chromatogr B Biomed Sci Appl, 753, 375-383). […]

SMMC-7721 cells = assay: MTT-based IC50 determination in SMMC-7721; type: cell-based; details: Homo sapiens
Experimental: (§1) The log phase of cell culture was obtained in Dulbecco modified Eagle medium (Invitrogen) containing 10% calf serum and 1% streptomycin-penicillin at 37° C. in 5% CO2. The thiazolyl blue tetrazolium […] cell proliferation assay was carried out as follows: 5×10^3 to 1×10^4 cells in triplicate were cultured into each well of a 96-well plate (in triplicate) for 72 h, followed by a 3-h 37° C. incubation after addition of 10 μL (5 mg/mL) MTT salt (Sigma, USA). The OD 570-nm reading was obtained; the mean and SD of the triplicate experiments were calculated and plotted (Fei Q. et al. (2008) Acta Biochim Biophys Sin (Shanghai), 40, 466-477).
(§2) The relative OD 570-nm readings (mean and SD) in each drug-treated set and the no-drug mock sample were calculated (%) and plotted against the logarithm of the drug concentration. The linear regression parameters were determined for each curve and the IC50 extrapolated (Andrisano V. et al. (2001) J Chromatogr B Biomed Sci Appl, 753, 375-383). Sources of the drugs are as follows: 5-FU, Shanghai Xudong Haipu Pharmaceutical, China; gemcitabine, Jiangsu Hansen Pharmaceutical, China; epirubicin, Shenzhen Main Luck Pharmaceutical, China; irinotecan, Aventis Pharmaceutical, Germany; paclitaxel, Bristol-Myers Squibb, USA; mitomycin, Hisun Pharmaceutical, China); docetaxel, Jiangsu Hengrui Medicine, China; vinorelbine, Yangzhou Aosaikang Pharmaceutical, China; and cisplatin, Qilu Pharmaceutical Factory, China.

[2] = tested on: CASP2L and CASP2S mRNAs of caspase 2; assay: qRT-PCR of caspase 2 splice forms in SMMC-7721; type: cell-based, human; details: SMMC-7721, low dose 4 μg/mL, one day
Experimental: (§3) RNA: Total RNA was isolated using TRIzol reagent (Invitrogen, USA). Complementary DNA synthesis was performed using a primeScript RT reagent kit (Tiangen Biotech Co., Ltd., Beijing, China) for the SYBR® Green-based real-time PCR analysis in Rotor-Gene™ 6000 system, Qiagen, Germany) of SRSF2, E2F1, ABCC8, and CASP2S/L. The expression of miR-193a-3p (Ribobio, Guangzhou, China) was assessed using the 2-Ct method with RNA content normalized to the U6 RNA (Ribobio, Guangzhou, China) and to β-actin for other genes and plotted. The high-throughput, quantitative nuclease protection based analysis (Bourzac K. M. et al. (2011) J Biotechnol, 154, 68-75; Pechhold S. et al. (2009) Nat Biotechnol, 27, 1038-1042) on a customized array that are designed for the simultaneous determination of the expression of 42 human miRs and 5 housekeeping genes was determined. Only miR-193a-3p expression was shown.
(§4) In light of all the known so far, this ratio is very likely to be most robust indicator to 5-FU resistance of HCC. To determine the 5-FU impact in this system, this example treated both cell lines by 4 μg/mL (a low dose) and 300 μg/mL (a high dose) for one day, respectively. […] As expected, both RNA and protein of SRSF2 were elevated by a larger margin than E2F1 in both QGY-7703 and SMMC-7721 (FIGS. 8B, C and F). […]

QGY-7703 cells = assay: MTT-based IC50 determination in QGY-7703; type: cell-based, human; details: for IC50: Homo sapiens
Experimental: as §1, §2

[3] = tested on: CASP2L and CASP2S mRNAs of caspase 2; assay: qRT-PCR of caspase 2 splice forms in QGY-7703; type: cell-based, human; details: QGY-7703, low dose 4 μg/mL, one day
Experimental: as §3, §4

HepG2 cells = assay: MTT-based IC50 determination in HepG2; type: cell-based, human
Experimental: The log phase of cell culture was obtained in Dulbecco modified Eagle medium (Invitrogen) containing 10% calf serum and 1% streptomycin-penicillin at 37° C. in 5% CO2. The thiazolyl blue tetrazolium blue (MTT)-based cell proliferation assay was carried out as follows: 5×10^3 to 1×10^4 cells in triplicate were cultured into each well of a 96-well plate (in triplicate) for 72 h, followed by a 3-h 37° C. incubation after addition of 10 μL (5 mg/mL) MTT salt (Sigma, USA).
The relative OD 570-nm readings (mean and SD) in each drug-treated set and the no-drug mock sample were calculated (%) and plotted against the logarithm of the drug concentration. […] Sources of the drugs are as follows: 5-FU, Shanghai Xudong Haipu Pharmaceutical, China; gemcitabine, Jiangsu Hansen Pharmaceutical, China; epirubicin, Shenzhen Main Luck Pharmaceutical, China; irinotecan, Aventis Pharmaceutical, Germany; paclitaxel, Bristol-Myers Squibb, USA; mitomycin, Hisun Pharmaceutical, China); docetaxel, Jiangsu Hengrui Medicine, China; vinorelbine, Yangzhou Aosaikang Pharmaceutical, China; and cisplatin, Qilu Pharmaceutical Factory, China.

[4] = tested on: SMMC-7721 tumor xenografts; assay: SMMC-7721 tumor growth in nude mice; type: in vivo
Experimental: After transfection with 50 nM miR-193a-3p or mock antagomirs (Ribobio, China) for 24 h, SMMC-7721 cells were collected and subcutaneously injected into the left and right flanks (1.25×10^6 cells/point) of each nude mouse (10 total), respectively. On day 12 after cell injection, 5 mice received 5-FU (75 mg/kg mouse body weight) intraperitoneal and then twice again in 1 week. The remaining 5 mice received phosphate-buffered saline (PBS) as a mock treatment control. And at the same time, the right side of all mice tumor were intratumorally injected with miR-193a-3p antagomir and left side with mock antagomir (according to manufacture instruction, Ribobio). To monitor the tumor growth, the volume was measured with a Vernier caliper on days 12, 18, 25, and 32 and calculated as Volume=W^2×L×0.5 (W and L represent the largest and next largest tumor diameters [cm]) and then plotted. Mice were humanely sacrificed on day 32, and tumors were weighed and photographed. Immunostaining was performed for ki67, SFS2, and E2F1 expression in both tumors of mouse number 4 (mock treated) mouse number 6 (5-FU treated).

[5] = antagomir treated SMMC-7721, 5-FU 75 mg/kg intraperitoneal, day 32
[6] = mock-transfected SMMC-7721, 5-FU 75 mg/kg intraperitoneal, day 32

SMILES: Nc1ncn([C@H]2C[C@H](O)[C@@H](CO)O2)c(=O)n1 [5-Aza-2′-deoxycytidine]
- steady state level of miR-193a-3p (miR-193a-3p): raised the steady state level of miR-193a-3p

- Bcap-37 more resistant than ZR-75-30 (relative IC50) [1]: 69.0 fold
- IC50 (SMMC-7721 cells; SMMC-7721, 72 h, MTT, read-out: IC50 to 5-FU): 41 µg/mL (≈ 315 µM)
- IC50 (SMMC-7721 cells; SMMC-7721, miR-193a-3p antagomir-transfected SMMC-7721, read-out: 5-FU IC50): 13.4 µg/mL (≈ 103 µM)
- IC50 of QGY-7703 lower than that of SMMC-7721 (QGY-7703 cells; QGY-7703 vs SMMC-7721): approximately 105.2 fold
- IC50 of HepG2 lower than SMMC-7721 (HepG2 cells; HepG2 vs SMMC-7721): 27.3 fold
- IC50 (HepG2 cells; Homo sapiens, HepG2, 72 h, MTT, read-out: IC50 to 5-FU): 1.45 µg/mL (≈ 11.1 µM)
SMILES: O=c1[nH]cc(F)c(=O)[nH]1 [5-FU, 5-fluorouracil]
- IC50 (SMMC-7721 cells; SMMC-7721, mock-transfected SMMC-7721, read-out: 5-FU IC50): 46.7 µg/mL (≈ 359 µM)
- CASP2L RNA, fold of the untreated level [2]: 7.38 fold
- CASP2S RNA, fold of the untreated level [2]: 1.97 fold
- IC50 (QGY-7703 cells; QGY-7703, 72 h, MTT, read-out: IC50 to 5-FU): 0.39 µg/mL (≈ 3 µM)
- IC50 (QGY-7703 cells; QGY-7703, SRSF2 siRNA-transfected QGY-7703, read-out: IC50 of 5-FU): 2.22 µg/mL (≈ 17.1 µM)
- IC50 (QGY-7703 cells; QGY-7703, miR-193a-3p mimic-transfected QGY-7703, read-out: 5-FU IC50): 5.29 µg/mL (≈ 40.7 µM)
- IC50 (QGY-7703 cells; QGY-7703, mock mimic-transfected QGY-7703, read-out: 5-FU IC50): 0.72 µg/mL (≈ 5.54 µM)
- IC50 (QGY-7703 cells; QGY-7703, mock siRNA-transfected QGY-7703, read-out: IC50 of 5-FU): 0.68 µg/mL (≈ 5.23 µM)
- CASP2L RNA, fold of the untreated level [3]: 14.62 fold
- CASP2S RNA, fold of the untreated level [3]: 1.46 fold
- tumor volume [4, 5]: 0.29 cm^3
- tumor weight [4, 5]: 0.37 g
- tumor volume ([4]; mock-transfected SMMC-7721, 5-FU 75 mg/kg intraperitoneal, day 25): 0.45 cm^3
- tumor volume [4, 6]: 0.89 cm^3
- tumor weight [4, 6]: 0.82 g
